In the METLIN SMRT retention time set (Domingo-Almenara et al. 2019):

Assay: gradient 5% acetonitrile 3 min, to 50% in 2 min, to 85% in 15 min, held 3 min, 100 µL/min
Details: column: Zorbax Extend-C18 2.1 x 50 mm; eluents: water / acetonitrile, 0.1% formic acid
Method in brief: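 The mobile phases were water and acetonitrile, each with 0.1% formic acid, pumped at 100 μL/min through a Zorbax Extend-C18 column (2.1 × 50 mm, 1.8 μm). Pure standards were injected as mixtures of ~100 molecules and detected by a quadrupole time-of-flight mass spectrometer in positive and negative ionization mode. Retention time came from computationally picked adduct peaks, each inspected by hand.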

RP-LC retention time | SMILES
907 s | O=C(Cn1cccc1-c1nnc(C2CCC2)o1)NCc1ccccc1Cl
1170 s | COc1ccccc1-c1nc(Cn2nnc(-c3nc(-c4ccc(C)cc4)no3)c2C)c(C)o1
689 s | Cc1cccc(-c2nc(Nc3ccc(C(=O)O)cc3)c3ccccc3n2)c1
626 s | COCCN1C(=O)c2cccn2CC1CNC(=O)c1ccnn1C (stereo not drawn)
1090 s | CCOC(=O)C1CCN(S(=O)(=O)c2cccc(-c3nnc(-c4ccc(C)cc4)o3)c2)CC1
693 s | O=C(Cn1c(=O)c(CCC(=O)NC2CC2)nc2ccccc21)NCc1ccccc1
760 s | O=C(c1ccccc1Br)N1CCN(Cc2noc3ccccc23)CC1
991 s | O=C(NC1CCCCCC1)c1csc(-c2ccc(N3CCOCC3)nc2)n1
606 s | O=C(COc1ccc(Cl)cc1)N1CCc2nc[nH]c2C1
522 s | O=C(NCCn1ncccc1=O)c1ccc(N2CCCC2)nn1
721 s | COc1cc(OC)c(NC(=O)Nc2c(-c3cccc(C)c3)nc3ccccn23)cc1Cl
822 s | Cc1cc2c(cc1S(=O)(=O)N1CCCC1C(=O)NCCCc1ccccc1)OC(C)C(=O)N2 (stereo not drawn)
838 s | CCc1nc2cc(N3CCC(C(=O)NCc4cc(F)cc(F)c4)CC3)cnc2nc1CC
1380 s | COC(=O)c1ccccc1NC(=O)C1CCCN(c2nc3c(s2)c(C)nn3-c2ccccc2)C1 (stereo not drawn)
832 s | O=C1COc2ccc(S(=O)(=O)N3CCC(C(=O)NCc4ccc(Cl)cc4)CC3)cc2N1
870 s | CCOc1ccccc1NC(=O)N1CCCC1c1cc(C)on1 (stereo not drawn)
572 s | Cc1cn(C)c(CC(=O)NCCN2CCOCC2)c1C(=O)O
634 s | O=C(NCc1ccc(N2CCCCC2)cc1)c1cccc2c1CCN2C(=O)C1CC1
612 s | Cc1nnc(C2CC3(CCN(CC(C)C)CC3)CN2CCc2ccccc2)o1 (stereo not drawn)
596 s | CC(=O)N1CCC(c2noc(-c3ccccn3)n2)C1 (stereo not drawn)
979 s | COC(=O)c1ccsc1NC(=O)c1ccc2c(c1)OCCO2
758 s | Cc1cc(N(C)C)nc(N2CCN(C(=O)c3ccc(-c4ccccc4)cc3)CC2)n1

RP-LC retention time | SMILES
990 s | Cc1cc(Br)ccc1NC(=O)C(=O)Nc1ccc2nc3n(c(=O)c2c1)CCCCC3
696 s | CN1C(=O)c2cccn2CC1C(=O)Nc1ccc(F)cc1F (stereo not drawn)
794 s | CCc1noc(NC(C)=O)c1-c1ccc(OC)c(S(=O)(=O)Nc2cccc(F)c2)c1
718 s | COc1ccc(S(=O)(=O)N2CCC(n3cnnc3-c3ccccc3)CC2)cc1OC
745 s | Cc1ccc(S(=O)(=O)N2CCC3(CC2)NCCN=C3NCc2cccc(F)c2)cc1C
718 s | O=C(CCc1csc(NC(=O)NC2CCCCC2)n1)NCc1ccc2c(c1)OCO2
1020 s | CN1C(=O)COc2ccc(-c3csc(NC(=O)c4cccc(Cl)c4)n3)cc21
553 s | CNc1cc(-c2ccccc2)[nH]n1
729 s | Cc1ccc(-n2cc3c(N4CCCC(C(=O)NCc5ccc(F)cc5F)C4)ncnc3n2)cc1 (stereo not drawn)
593 s | CCN1C(=O)C(CC(=O)NCCOC)Sc2ncccc21 (stereo not drawn)
711 s | c1cc2c(cc1-c1noc(C3CCCCC3)n1)nnn2CCN1CCOCC1
586 s | CCOC(=O)CCC(=O)Nc1cccc2ccc(-n3ccnc3)nc12
748 s | O=C1NC2(CCN(C(=O)c3ccccc3)CC2)N=C1c1cccc(F)c1
1020 s | CCOC(=O)c1cc(S(=O)(=O)N2CCCC2C(=O)Nc2ccc(C)c(C)c2)cn1C (stereo not drawn)
934 s | COc1cccc(-c2cc(CNC(=O)c3sc(-n4cccc4)nc3C)no2)c1
946 s | CC(C)c1ccc(-c2cc3c4nn(CC(=O)NCc5ccco5)c(=O)n4ccn3n2)cc1
790 s | O=C1NC(Cc2c[nH]c3ccccc23)C(=O)N1c1cccc(Cl)c1 (stereo not drawn)
972 s | COC(=O)c1sccc1NC(=O)N1CCCn2nc(-c3cccc(Cl)c3)cc2C1
590 s | Cc1nnc2n1CCC(NS(=O)(=O)c1ccccc1F)CC2 (stereo not drawn)
794 s | COc1ccc2c(C)c(C(=O)Nc3ccc4cn[nH]c4c3)oc2c1
702 s | COc1ccc(NC(=O)C2CCCN(c3nnc4ccccn34)C2)cc1Cl (stereo not drawn)
978 s | CCC(c1cccs1)N1C(=O)[C@H]2CN(S(=O)(=O)c3ccc(F)c(C)c3)C[C@H]2C1=O (stereo partly drawn)

RP-LC retention time | SMILES
610 s | CCN1CCCC1CN(CC(=O)N1CCNCC1)S(=O)(=O)c1ccc(CC(C)C)cc1 (stereo not drawn)
666 s | COc1ccc(-c2noc(-c3ccc(NCCCN4CCC(C)CC4)nc3)n2)cc1
648 s | O=C(C1CCN(c2cnc3nccnc3c2)CC1)N1CCCCC1
1030 s | CC(C)c1noc(-c2cc(=O)n(CC(=O)NCc3cccc(Cl)c3)c3ccccc23)n1
744 s | Cc1cc(C)c(-c2noc(C)n2)c(NC(=O)c2ccccc2Cl)n1
712 s | COCCn1ccc2nc(C)c(C(=O)NCc3ccc(SC)cc3)cc2c1=O
722 s | CCN1CCN(S(=O)(=O)c2cccc(-c3nc(-c4ccccc4)no3)c2)CC1
803 s | Cc1c(C)n(-c2ccc(Cl)cc2)c2ncn(CC(=O)N3CCCC3)c(=O)c12
616 s | CC1=NS(=O)(=O)N(C)C=C1C(=O)OCc1ccccc1C
918 s | O=C(Nc1nnc(-c2ccc3c(c2)CCCC3)o1)c1ccc([N+](=O)[O-])o1
760 s | N#CCCSc1ccccc1NC(=O)c1ccc(S(=O)(=O)N2CCOCC2)cc1
650 s | CN1C(=O)c2cccnc2Sc2cc(NC(=O)C3CC3)ccc21
583 s | O=C(Cn1c(CN2CCCCC2)nc2ccccc21)N1CCOCC1
868 s | Cc1ccc(C)c(NC(=O)Cn2nc3cc(C)nc(-c4ccccc4)n3c2=O)c1
695 s | COC(=O)c1ccccc1NC(=O)CSc1nccc(N2CCN(c3cccc(OC)c3)CC2)n1
953 s | Cc1ccc(NS(=O)(=O)c2cn(CC(C)C)c3ncccc23)cc1F
659 s | CCCNC(=O)C1CC(=O)N(c2ccc3c(c2)CCN3C(=O)C2CC2)C1 (stereo not drawn)
583 s | O=C(NCC1CCCO1)C(=O)NCC(c1ccc2c(c1)OCO2)N1CCOCC1 (stereo not drawn)
816 s | Cc1cccc(CNC(=O)C2(C)Cn3cnc(C(=O)N(C)Cc4ccccc4)c3C(=O)N2C2CC2)c1 (stereo not drawn)
830 s | CCCNC(=O)C1CCN(S(=O)(=O)c2cc(-c3noc(CC)n3)cs2)CC1
791 s | COc1ccc(Cl)cc1NC(=O)Cn1c(C)ncc(C(=O)NC2CCCC2)c1=O
847 s | Cc1nnc(C(=O)Nc2cccc(C(=O)NCCc3c[nH]c4ccc(Cl)cc34)c2)s1

RP-LC retention time | SMILES
657 s | O=C(Cn1ccc2ccccc21)NCc1n[nH]c(=O)c2ccccc12
843 s | CSc1ccc(-c2nc3ncccn3c2Nc2cccc(C)c2)cc1
710 s | CCC(=O)Nc1cc2c(cc1S(=O)(=O)c1ccccc1)n(C)c(=O)n2C
963 s | COc1cccc(-c2noc(C3CC(=O)N(c4ccc(Cl)cc4)C3)n2)c1OC (stereo not drawn)
1040 s | CCOc1ccc(N2C(=O)C3N=NN(Cc4nc(-c5ccc(C)cc5)no4)C3C2=O)cc1 (stereo not drawn)
588 s | Cc1cnc(C2CN(C3CCCCCC3)C2)n1Cc1ccccc1
839 s | CCOCCOC(=O)C1=C(C)NC2=C(C(=O)CC(C)(C)C2)C1c1ccccc1OC (stereo not drawn)
1300 s | Cc1cccc(-c2nc(Cn3nnc(-c4nc(-c5cccc(Cl)c5)no4)c3C)c(C)o2)c1
1260 s | COc1ccc(C2Cn3nnc(-c4nc(-c5ccc(Br)cc5)no4)c3CO2)cc1 (stereo not drawn)
848 s | COc1ccc(CNS(=O)(=O)c2cc(-c3cc(C(F)(F)F)on3)sc2C)cc1
680 s | CCN1CCn2cc(S(=O)(=O)Nc3cccc(C#N)c3)cc2C1=O
552 s | Cc1nc([C@@H]2CN(C(=O)c3sccc3C)C[C@H]2C(N)=O)n[nH]1
961 s | Fc1ccc(-c2nc3cnc(Br)cn3c2Nc2ccc3c(c2)OCCO3)cc1
748 s | COc1ccc(CN2CN=C(Nc3nc(C)c4cc(OC)ccc4n3)NC2)cc1
871 s | O=C(Nc1ccc(F)cc1)C1CC(=O)N(CCc2c[nH]c3ccc(Cl)cc23)C1 (stereo not drawn)
634 s | Cc1cc(C)cc(NC(=O)N2CCN(c3cnn4c(C)nnc4c3)CC2)c1
773 s | COc1ccc(NS(=O)(=O)c2cc3n(c2)CCCN(C(C)C)C3=O)cc1Cl
817 s | CC1(C(=O)NCc2ccc3c(c2)OCO3)CCN(C(=O)/C=C/c2ccccc2)CC1
873 s | CCOc1ccccc1C(=O)NC1CCN(C(=O)c2cn(-c3ccc(C)c(C)c3)nn2)CC1
1020 s | COc1ccc(NC(=O)c2cc(S(=O)(=O)N3CCC(C)CC3)cn2C)c(OC)c1
678 s | Cc1nc(-c2noc(-c3ccncc3)n2)cn1CC(=O)N1CCc2ccccc21

SMILES | RP-LC retention time
CSc1ccc(CNC(=O)CN2CC=C(c3cnn(-c4ccccc4)c3)CC2)cc1 | 720 s
